This note sets out measurements from ChEMBL document CHEMBL3351528, “Targeting dopamine D3 and serotonin 5-HT1A and 5-HT2A receptors for developing effective antipsychotics: synthesis, biological characterization, and behavioral studies” (J Med Chem, 2014).

The species named for data set [1] is Mus musculus. The experiment in a line: animal or person. The following applies: NMRI, sc.
Description: Antipsychotic-like activity in sc dosed NMRI mouse assessed as reduction in methamphetamine-induced locomotor activity dosed 15 to 30 mins before administration of methamphetamine measured for 60 mins
For data set [2], the species on record is Mus musculus. The note with it: in vivo, sc, 0.5 h.
Description: Effect on spontaneous exploratory locomotor activity in sc dosed NMRI mouse measured for 30 mins with activity counts each 5 mins
For data set [3], the target named is T1, 5-hydroxytryptamine receptor 2C (Homo sapiens, UniProt P28335).
T1 sequence (P28335 whole entry): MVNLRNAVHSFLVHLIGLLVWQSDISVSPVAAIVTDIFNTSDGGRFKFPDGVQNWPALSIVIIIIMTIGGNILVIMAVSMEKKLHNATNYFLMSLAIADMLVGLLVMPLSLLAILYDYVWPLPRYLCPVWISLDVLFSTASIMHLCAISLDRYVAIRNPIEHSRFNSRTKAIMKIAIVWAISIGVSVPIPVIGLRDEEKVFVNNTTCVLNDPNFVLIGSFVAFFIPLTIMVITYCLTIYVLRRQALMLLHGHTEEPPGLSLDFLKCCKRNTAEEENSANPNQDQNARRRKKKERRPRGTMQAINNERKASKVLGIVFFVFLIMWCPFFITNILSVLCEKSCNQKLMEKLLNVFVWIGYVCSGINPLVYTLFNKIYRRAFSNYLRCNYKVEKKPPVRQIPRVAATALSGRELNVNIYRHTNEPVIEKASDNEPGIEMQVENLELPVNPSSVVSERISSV
Description: Binding affinity to 5HT2C receptor (unknown origin)

In data set [4] the target is 5-hydroxytryptamine receptor 2A (Homo sapiens, UniProt P28223).
Sequence of 5-hydroxytryptamine receptor 2A (P28223 whole entry): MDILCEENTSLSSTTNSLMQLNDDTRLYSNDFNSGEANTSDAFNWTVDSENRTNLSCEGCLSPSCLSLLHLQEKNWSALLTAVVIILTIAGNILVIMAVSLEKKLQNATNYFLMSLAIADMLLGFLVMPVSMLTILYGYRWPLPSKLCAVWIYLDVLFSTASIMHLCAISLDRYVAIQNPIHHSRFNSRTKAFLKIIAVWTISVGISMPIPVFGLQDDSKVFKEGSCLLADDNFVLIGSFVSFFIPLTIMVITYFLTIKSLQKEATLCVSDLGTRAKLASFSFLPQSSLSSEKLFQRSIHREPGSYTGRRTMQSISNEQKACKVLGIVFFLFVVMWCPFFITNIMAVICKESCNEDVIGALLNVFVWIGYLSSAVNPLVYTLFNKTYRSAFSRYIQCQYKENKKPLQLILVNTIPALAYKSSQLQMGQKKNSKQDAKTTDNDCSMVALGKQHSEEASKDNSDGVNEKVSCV
Description: Binding affinity to 5HT2A receptor (unknown origin)
The target in data set [5] is T2, 5-hydroxytryptamine receptor 1A (Homo sapiens, UniProt P08908).
T2 sequence (P08908 whole entry): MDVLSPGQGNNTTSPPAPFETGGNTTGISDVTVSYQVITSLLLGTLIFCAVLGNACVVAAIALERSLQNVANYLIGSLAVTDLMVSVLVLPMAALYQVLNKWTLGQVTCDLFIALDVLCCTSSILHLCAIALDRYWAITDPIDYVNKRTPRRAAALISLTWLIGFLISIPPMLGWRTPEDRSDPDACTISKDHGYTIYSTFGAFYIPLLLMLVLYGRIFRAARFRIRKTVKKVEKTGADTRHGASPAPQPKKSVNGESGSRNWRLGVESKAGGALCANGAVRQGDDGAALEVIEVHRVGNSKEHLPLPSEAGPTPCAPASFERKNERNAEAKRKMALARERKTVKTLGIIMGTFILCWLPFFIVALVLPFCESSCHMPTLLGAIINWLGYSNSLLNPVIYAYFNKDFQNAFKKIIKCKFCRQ
Description: Binding affinity to 5HT1A receptor (unknown origin)

In data set [6] the target is D(2) dopamine receptor (Homo sapiens, UniProt P14416).
Sequence of D(2) dopamine receptor (P14416 whole entry): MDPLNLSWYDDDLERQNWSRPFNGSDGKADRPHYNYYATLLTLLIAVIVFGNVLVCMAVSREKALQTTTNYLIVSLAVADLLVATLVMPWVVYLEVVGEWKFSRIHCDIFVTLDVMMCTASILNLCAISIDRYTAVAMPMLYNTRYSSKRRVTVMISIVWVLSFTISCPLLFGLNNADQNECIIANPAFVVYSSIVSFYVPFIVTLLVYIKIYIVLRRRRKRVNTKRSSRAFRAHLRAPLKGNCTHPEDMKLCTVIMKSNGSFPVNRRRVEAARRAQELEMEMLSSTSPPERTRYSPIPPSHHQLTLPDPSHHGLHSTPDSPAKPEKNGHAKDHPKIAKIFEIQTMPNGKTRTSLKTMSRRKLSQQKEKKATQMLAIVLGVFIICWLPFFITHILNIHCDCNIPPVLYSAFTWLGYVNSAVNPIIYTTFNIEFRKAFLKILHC
Description: Binding affinity to dopamine D2 receptor (unknown origin)
Data set [7] concerns the target D(3) dopamine receptor (Homo sapiens, UniProt P35462).
Description: Binding affinity to dopamine D3 receptor (unknown origin)
The species named for data set [8] is Mus musculus. The experiment in a line: animal or person. The following applies: NMRI, sc, read-out: MED.
Description: Antipsychotic-like activity in sc dosed NMRI mouse assessed as reduction in PCP-induced locomotor activity dosed 15 to 30 mins before administration of methamphetamine measured for 60 mins

For orientation: ED50 means the midpoint of the dose-response relation. A word on the Ki: it is the equilibrium dissociation constant of an inhibitor or competing ligand from its target.

Sequence of D(3) dopamine receptor (P35462 whole entry): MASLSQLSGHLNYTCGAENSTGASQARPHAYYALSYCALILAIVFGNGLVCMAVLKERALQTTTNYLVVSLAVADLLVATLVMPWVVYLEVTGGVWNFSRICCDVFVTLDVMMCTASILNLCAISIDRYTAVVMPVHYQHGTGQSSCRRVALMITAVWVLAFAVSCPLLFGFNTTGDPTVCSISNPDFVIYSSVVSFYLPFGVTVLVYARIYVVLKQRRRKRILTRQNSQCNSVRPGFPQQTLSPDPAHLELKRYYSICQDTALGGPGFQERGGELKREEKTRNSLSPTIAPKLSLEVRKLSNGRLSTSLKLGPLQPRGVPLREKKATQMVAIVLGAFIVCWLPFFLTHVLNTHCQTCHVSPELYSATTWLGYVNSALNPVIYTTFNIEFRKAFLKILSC

On to `O=C(CCCN1CCC(O)(c2ccc(Cl)cc2)CC1)c1ccc(F)cc1` [HALOPERIDOL], for which the ED50 was 0.09 mg/kg in data set [1] and 0.08 mg/kg in data set [2].
For the compound `COc1cccc(N2CCN(CCCCNC(=O)c3ccccn3)CC2)n1`, the minimal effective dose in data set [1] (read-out: MED) and in data set [8] was 3 mg/kg each time. The Ki in data set [3] is 43 nM; in data set [4], 140 nM; in data set [5], 8 nM; in data set [6], > 1000 nM; in data set [7], 200 nM. In data set [2], the MED was > 3 mg/kg.
Take `O=C(NCCCCN1CCN(c2cnc3ccccc3c2)CC1)c1ccccc1`: the Ki was > 1000 nM in data set [3]; > 1000 nM in data set [4]; > 1000 nM in data set [5]; 1 nM in data set [6]; 40 nM in data set [7].
`O=C(NCCCCN1CCN(c2ccccn2)CC1)c1cc2ccccc2cn1`: the Ki worked out at 1350 nM in data set [3]; 822 nM in data set [4]; 16 nM in data set [5]; 5600 nM in data set [6]; 41 nM in data set [7].
For `O=C(NCCCCN1CCN(c2ccccc2)CC1)[C@H]1CCc2ccccc2N1`, the Ki in data set [3] is > 1000 nM; in data set [4], 50 nM; in data set [5], 9.9 nM; in data set [6] it was > 1000 nM; in data set [7], 73 nM.
`O=C(NCCCCN1CCN(c2cccc(F)c2)CC1)c1cc2ccccc2cn1`: the Ki in data set [3] turned out to be 230 nM; in data set [4], 11 nM; in data set [5], 11 nM; in data set [6], 160 nM; in data set [7], 3 nM.
Consider `Cc1cccc(N2CCN(CCCCNC(=O)c3cc4ccccc4o3)CC2)n1`, for which the Ki in data set [3] is 61 nM; in data set [4], 27 nM; in data set [5], 2 nM; in data set [6], > 1000 nM; in data set [7], 24 nM.
Consider `O=C(NCCCCN1CCN(c2ccccc2)CC1)c1cccnc1`, for which the Ki was > 1000 nM in data set [3]; 216 nM in data set [4]; 85 nM in data set [5]; > 1000 nM in data set [6]; 62 nM in data set [7].
As for `O=C(NCCCCN1CCN(c2ccccc2)CC1)[C@@H]1CCc2ccccc2N1`, the Ki in data set [3] is > 1000 nM; in data set [4], 22 nM; in data set [5], 85 nM; in data set [6], > 1000 nM; in data set [7], 45 nM.
For the compound `O=C(NCCCCN1CCN(c2ccccn2)CC1)c1ccc2ccccc2n1`, the Ki in data set [3] was > 1000 nM; in data set [4] it was 69 nM; in data set [5], 24 nM; in data set [6], > 1000 nM; in data set [7], 186 nM.
With `O=C(NCCCCN1CCN(c2cccc(C(F)(F)F)c2)CC1)c1cc2ccccc2[nH]1`, the Ki in data set [3] came out at 22 nM; in data set [4], 4 nM; in data set [5] it was 1.9 nM; in data set [6] it was 53 nM; in data set [7] it was 0.2 nM.
Consider `Cc1cccc(N2CCN(CCCCNC(=O)[C@@H]3CCc4ccccc4N3)CC2)c1`, for which the Ki was 73.4 nM in data set [3]; 5.1 nM in data set [4]; 43 nM in data set [5]; > 1000 nM in data set [6]; 159 nM in data set [7].
With `O=C(NCCCCN1CCN(c2ncccn2)CC1)c1cc2ccccc2cn1`, the Ki was > 1000 nM in data set [3]; 1230 nM in data set [4]; 67 nM in data set [5]; > 1000 nM in data set [6]; 204 nM in data set [7].
In the case of `O=C(NCCCCN1CCN(c2cccc3ccccc23)CC1)c1ccccc1`, the Ki was 6 nM in data set [3]; 3 nM in data set [4]; 0.7 nM in data set [5]; 58 nM in data set [6]; 0.9 nM in data set [7].
As to `O=C(NCCCCN1CCN(c2ccccc2)CC1)c1ccc2ccccc2n1`, the inhibition constant (Ki) in data set [3] is 475 nM; in data set [4] it was 98 nM; in data set [5], 94 nM; in data set [6], > 1000 nM; in data set [7] it was 61 nM.
Take `O=C(NCCCCN1CCN(Cc2ccccc2)CC1)c1cc2ccccc2o1`: the inhibition constant (Ki) was > 1000 nM in data set [3]; > 1000 nM in data set [4]; > 1000 nM in data set [5]; > 1000 nM in data set [6]; 560 nM in data set [7].
Turning to `Cc1cccc(N2CCN(CCCCNC(=O)c3ccccn3)CC2)n1`, the Ki in data set [3] was > 1000 nM; in data set [4] it was 240 nM; in data set [5] it was 3 nM; in data set [6], > 1000 nM; in data set [7], > 1000 nM.
Regarding `Cc1cccc(N2CCN(CCCCNC(=O)c3cc4ccccc4cn3)CC2)n1`, the Ki is 57 nM in data set [3]; 28 nM in data set [4]; 2 nM in data set [5]; > 1000 nM in data set [6]; 46 nM in data set [7].
With `COc1cccc(N2CCN(CCCCNC(=O)c3c[nH]c4ccccc34)CC2)c1`, the Ki in data set [3] is 602 nM; in data set [4], 164 nM; in data set [5] it was 59 nM; in data set [6] it was > 1000 nM; in data set [7] it was 40 nM.
For `COc1cccc(N2CCN(CCCCNC(=O)c3ccc4ccccc4n3)CC2)c1`, the Ki in data set [3] is 155 nM; in data set [4] it was 70 nM; in data set [5], 26 nM; in data set [6] it was > 1000 nM; in data set [7] it was 31 nM.
In the case of `Cc1cccc(N2CCN(CCCCNC(=O)c3cc4ccccc4o3)CC2)c1`, the Ki in data set [3] came out at 206 nM; in data set [4] it was 15.3 nM; in data set [5], 11.9 nM.
As for `O=C(NCCCCN1CCN(c2ccc(O)cc2)CC1)c1cc2ccccc2cn1`, the Ki in data set [3] was 400 nM; in data set [4], 17 nM; in data set [5] it was > 1000 nM; in data set [6] it was > 1000 nM; in data set [7] it was 24 nM.
On to `Cc1cccc(N2CCN(CCCCNC(=O)[C@H]3CCc4ccccc4N3)CC2)c1`, for which the Ki in data set [3] is 450 nM; in data set [4] it was 77 nM; in data set [5] it was 117 nM; in data set [6], 3410 nM; in data set [7], 122 nM.
With `COc1cccc(N2CCN(CCCCNC(=O)c3cc4ccccc4n3C)CC2)c1`, the Ki was 311 nM in data set [3]; 311 nM in data set [4]; 10 nM in data set [5]; 219 nM in data set [6]; 1.7 nM in data set [7].
As for `COc1cccc(N2CCN(CCCCNC(=O)c3cccc(C)n3)CC2)c1`, the Ki in data set [3] was > 1000 nM; in data set [4] it was 238 nM; in data set [5], 44 nM; in data set [6], > 1000 nM; in data set [7], 27 nM.
As for `COc1cccc(N2CCN(CCCCNC(=O)c3ccccn3)CC2)c1`, the Ki was > 1000 nM in data set [3]; 179 nM in data set [4]; 36 nM in data set [5]; > 1000 nM in data set [6]; 214 nM in data set [7].
For `O=C(NCCCCN1CCN(c2ccccc2F)CC1)c1cc2ccccc2o1`, the Ki in data set [3] was determined as 79 nM; in data set [4], 18 nM; in data set [5] it was 15 nM; in data set [6], 76 nM; in data set [7], 0.3 nM.
As for `O=C(NCCCCN1CCN(c2cnc3ccccc3c2)CC1)c1cc2ccccc2cn1`, the inhibition constant Ki in data set [3] is 479 nM; in data set [4], 1000 nM; in data set [5], > 1000 nM; in data set [6], > 1000 nM; in data set [7], 14 nM.
For `COc1cccc(N2CCN(CCCCNC(=O)c3cc4ccccc4o3)CC2)c1`, the Ki was 173 nM in data set [3]; 40 nM in data set [4]; 17 nM in data set [5]; > 1000 nM in data set [6]; 8.8 nM in data set [7].
